Data published in patent publication US20110171274A1, “Fesoterodine Substantially Free of Dehydroxy Impurity” (ACTAVIS GROUP PTC EHF, priority 2008, published 2011).
Structures can show the parent of a compound that is named as a salt.

Assays:
Assay type in all cases: physicochemical
[1] = Particle size distribution by laser diffraction (Malvern Master Sizer 2000); details: for Particle Size (D10) / Particle Size (D50) / Particle Size (D90): as crystallised from isopropyl alcohol / isopropyl ether
Description: As used herein, “Particle Size Distribution (PSD)” means the cumulative volume size distribution of equivalent spherical diameters as determined by laser diffraction in Malvern Master Sizer 2000 equipment or its equivalent. “Mean particle size distribution, i.e., (D50)” correspondingly, means the median of said particle size distribution.
The important characteristics of the PSD were the (D90), which is the size, in microns, below which 90% of the particles by volume are found, and the (D50), which is the size, in microns, below which 50% of the particles by volume are found.

[2] = Solubility of fesoterodine fumarate in solvents
[3] = Storage stability (crystalline form, lack of formation of impurities); details: about 25±2° C., relative humidity about 60±5%
Description: The term “remains stable”, as defined herein, refers to lack of formation of impurities, while being stored as described hereinbefore.

Row | Particle Size (D10) [1] | Particle Size (D50) [1] | Particle Size (D90) [1] | Compound | other results
1 | 4.243 μm | 14.875 μm | 90.272 μm | CC(C)C(=O)Oc1ccc(CO)cc1[C@H](CCN(C(C)C)C(C)C)c1ccccc1 [Example 7, Fesoterodine Fumarate] | –
2 | 4.518 μm | 22.291 μm | 85.415 μm | CC(C)C(=O)Oc1ccc(CO)cc1[C@H](CCN(C(C)C)C(C)C)c1ccccc1 [Example 8, Fesoterodine Fumarate] | –
3 | 4.485 μm | 31.876 μm | 110.282 μm | CC(C)C(=O)Oc1ccc(CO)cc1[C@H](CCN(C(C)C)C(C)C)c1ccccc1 [Example 9, Fesoterodine Fumarate] | –
4 | – | – | – | CC(C)C(=O)Oc1ccc(CO)cc1[C@H](CCN(C(C)C)C(C)C)c1ccccc1 [Example 10, Fesoterodine fumarate] | diameter of 90 volume-% of the particles (D90) ([1]; after fine-milling in a grinder for 3-4 minutes): less than 50 microns
5 | – | – | – | CC(C)C(=O)Oc1ccc(CO)cc1[C@H](CCN(C(C)C)C(C)C)c1ccccc1 [Fesoterodine fumarate, 2-[(1R)-3-[bis(1-methylethyl)amino]-1-phenylpropyl]-4-hydroxymethylphenyl isobutyrate] | solubility in aqueous solvents ([2]; aqueous solvents): freely soluble; solubility in heptane ([2]; heptane): practically insoluble; solubility in polar non protic solvents ([2]; polar non protic solvents (acetone, DMF, DMSO, acetonitrile)): soluble; solubility in polar protic organic solvents ([2]; some polar protic organic solvents (ethanol, methanol, glacial acetic acid, 2-propanol, propylene glycol)): soluble; solubility in toluene ([2]; toluene): slightly soluble; storage stability ([3]; 3 months): remains in the same crystalline form and stable; storage stability ([3]; at least one month): remains in the same crystalline form and stable
